This note sets out measurements from paper PMC12010937, “Evaluation of FXR Activity in Pollutants Identified in Sewage Sludge and Subsequent in Vitro and in Vivo Characterization of Metabolic Effects of Triphenyl Phosphate” (Environmental Health Perspectives, 2025).

Values joined by “and” are separate entries in the source; they are usually repeats but may differ in a detail not shown here. Identical values can stand only once. Like-named read-outs stand apart in the source and are kept apart here.

In data set [1] the target is T1, human FXR-LBD (GST-FXR-LBD) (Homo sapiens, UniProt Q96RI1).
T1 construct: the human FXR-LBD (residues 234–472) was expressed as a GST fusion protein GST-FXR-LBD; made in house; host or cells: E. coli BL21(DE3)
T1 sequence (Q96RI1 234-472 isoform Q96RI1-2): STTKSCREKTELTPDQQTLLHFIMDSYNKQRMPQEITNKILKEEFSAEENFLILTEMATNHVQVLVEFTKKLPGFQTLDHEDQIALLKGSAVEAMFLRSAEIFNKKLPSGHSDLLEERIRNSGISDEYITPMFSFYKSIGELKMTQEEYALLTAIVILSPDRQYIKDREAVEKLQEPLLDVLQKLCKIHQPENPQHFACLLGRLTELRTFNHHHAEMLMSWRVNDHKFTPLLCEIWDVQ
The experiment in a line: HTRF coactivator recruitment assay, antagonist mode (in the presence of 50 μM CDCA). It is filed as biochemical. (In general: TR-FRET usually uses a lanthanide donor and a delayed reading to cut background.)

Data set [2] can be described thus: Analysis of TPHP in mice (serum, liver, ileum) by UPLC-MS/MS. It is filed as in vivo, C57BL/6N mice. To be noted: mouse. The protocol: (§1) Male C57BL/6N mice (8 wk of age) were purchased from Beijing Vital River Laboratory Inc. and acclimated to the environment for 2 wk before they were used for experiments. The environment was maintained at 22°C, in a 12-h light/dark cycle with 50%–60% relative humidity and fed standard chow diets. Because the male mice are more sensitive to metabolic disease than female mice and the estrous cycle of female mice may induce variability to the metabolic phenotypes,[50] only male mice were used in this study. Animals were randomly assigned to control or TPHP treatment groups (five mice per group). Mice were exposed to corn oil (control) purchased from Sigma-Aldrich (C8267) or TPHP (dissolved in corn oil) at 10mg/kg or 50mg/kg body weight (BW) by daily oral gavage for 35 d. The administered volume was 5mL/kg BW. The TPHP corn oil solutions for administration were prepared by dissolving the TPHP in corn oil, and the solutions were stored at −20°C and freshly prepared each week. BW was measured every other day during the dosing period. At the end of experiments, the mice were anesthetized with isoflurane, then blood was collected from the retro-orbital sinus via orbital puncture, and then the mice were euthanized by cervical dislocation. The liver was isolated, weighted, and divided into three fractions: one fraction was fixed with 4% neutral-buffered formalin for Oil Red staining; another fraction was frozen in liquid nitrogen and stored at −80°C for the BA targeted analysis, lipidomic analysis, and qPCR analysis; the remaining fraction was embedded with 3% carboxymethylcellulose (CMC) for MSI analysis. The ileum was also isolated, weighted, and stored at −80°C for the BA targeted analysis and qRT-PCR analysis. Cecal contents were collected from the cecum of mice for the 16S rRNA gene sequencing analysis. Animal study protocols were approved by the Animal Care and Use Committee of Peking University (approval number: Urban-WanY-1).
Samples of serum ( 100μL ) and freeze-dried liver ( 50mg ) and ileum tissues ( 10mg ) were spiked with 10μL of 100 ng/mL TPHP- d15 (CDAA-412134D15; ANPEL) and extracted with 2mL of ethyl acetate for 10 min on an orbital shaker. After centrifuging at 4,000×g for 10 min, the supernatants were transferred to glass tubes. The extraction process was performed twice, and the supernatants were combined, concentrated to near dryness under a gentle stream of nitrogen, and reconstituted in 1mL of n -hexane. Then, the extracts were loaded on a Sep-Pak Aminopropyl ( NH2 ) cartridge (6cc, 500mg; Waters) preconditioned with 6mL of dichloromethane, 6mL of dichloromethane/n-hexane (1:4, v/v), and 6mL of n -hexane. After being rinsed with 6mL of n -hexane and 6mL of dichloromethane/n-hexane (1:4, v/v), the target analytes were eluted with 3mL of dichloromethane. The eluates were dried under a gentle stream of nitrogen and reconstituted in 100μL of methanol.
Analysis of TPHP was performed on a Waters Xevo TQ-XS Triple Quadrupole mass spectrometer coupled with the Waters ACQUITY UPLC I-Class System. An InfinityLab Poroshell C18 column ( 100×2.1mm , 1.9μm ) was used. The injection volume was 5μL . Ultrapure water (0.1% formic acid) (A) and acetonitrile (B) were used as the mobile phases. The elution gradient was performed as follows: 0–3 min, 50% B; 3–6 min, 50%−70% B; 6–6.2 min, 70%−100% B; 6.2–8.5 min, 100%−100% B; 8.5–8.6 min, 100%−50% B; 8.6–10 min, 50% B. The rate of flow was 0.3mL/min . The column temperature was maintained at 40°C. The mass spectrometer was equipped with an ESI source and operated in multiple reaction monitoring (MRM) and positive ion mode. A capillary voltage of 3.0 kV , a source temperature of 150°C, and a desolvation temperature of 500°C were used. Desolvation gas and the cone gas flow were set as 1,200 liters/h and 150 liters/h , respectively, and the collision gas was 0.15mL/min . […] The matrix effects were 114.9±4.3% and 118.4±0.5% for the serum and tissues, respectively.

The test system of another data set is C57BL/6N mice. The experiment in a line: Hepatic triglyceride (TG enzymatic assay kit). It is filed as in vivo. The following applies: for Hepatic TG: individual mice. The procedure: as §1, with “Cecal contents were collected from the cecum of mice for the 16S rRNA gene sequencing analysis. Animal study protocols were approved by the Animal Care and Use Committee of Peking University (approval number: Urban-WanY-1).” left out
The TG level in the liver was determined using a triglyceride enzymatic assay kit (Applygen). […] The total BA level in the liver was determined using a Total Bile Acid (TBA) Colorimetric Assay Kit (Elabscience). […] Both the TG and TBA results were normalized by the protein concentration determined by bicinchoninic acid (BCA) method using a BCA kit (Applygen).

The mark [3] stands for this setting: read-out: Relative antagonist activity (%).

For the compound `O=P(Oc1ccccc1)(Oc1ccccc1)Oc1ccccc1` [TPHP, triphenyl phosphate], the activity at 1.95 µM in data set [1] (1.95 μM compound + 50 μM CDCA, replicates, read-out: Relative antagonist activity (%)) was determined as 97.2%. Further, the activity at 3.9 µM in data set [1] (3.90 μM compound + 50 μM CDCA, replicates, read-out: Relative antagonist activity (%)) is 97.3%. Further, the activity at 31.25 µM in data set [1] (31.25 μM compound + 50 μM CDCA, replicates, read-out: Relative antagonist activity (%)) amounted to 87.3%. Besides, in data set [1] (50 μM compound in the presence of 50 μM CDCA, standardized against positive control DY268 (50 μM = 100%)), the “Relative activity, antagonist mode” value turned out to be 42.69%. For the same compound, the activity at 62.5 µM in data set [1] (62.50 μM compound + 50 μM CDCA, replicates, read-out: Relative antagonist activity (%)) amounted to 76.5%. Besides, the activity at 250 µM in data set [1] (250.00 μM compound + 50 μM CDCA, standardized to DMSO and 50 μM CDCA, replicates, read-out: Relative antagonist activity (%)) was found to be 58.1%. The concentration for half-maximal inhibition (IC50) in data set [1] (read-out: IC50, inhibition of CDCA-induced coactivator recruitment to FXR) worked out at 70.6 µM. Besides, in data set [1] (setting [3]), the activity at 0.98 µM was 99.2%. The activity at 7.8 µM in data set [1] (setting [3]) worked out at 95.9%. The activity at 125 µM in data set [1] (setting [3]) was 64.3%. The activity at […] in data set [1] (setting [3]) is 90.6%. Further, the concentration at 35 d in data set [2] (male, C57BL/6N, ileum, TPHP-H: 50 mg/kg daily oral gavage 35 d, read-out: TPHP concentration in ileum) worked out at 13.2 ± 0.91 ng/g; in data set [2] (male, C57BL/6N, ileum, TPHP-L: 10 mg/kg daily oral gavage 35 d, read-out: TPHP concentration in ileum) it was 7.24 ± 1.33 ng/g; in data set [2] (male, C57BL/6N, liver, TPHP-H: 50 mg/kg daily oral gavage 35 d, read-out: TPHP concentration in liver), 12.9 ± 3.31 ng/g; in data set [2] (male, C57BL/6N, liver, TPHP-L: 10 mg/kg daily oral gavage 35 d, read-out: TPHP concentration in liver) it was 5.33 ± 1.91 ng/g; in data set [2] (serum, TPHP-H: 50 mg/kg daily oral gavage 35 d, male C57BL/6N mice, read-out: TPHP concentration in serum) it was 0.79 ± 0.36 ng/mL; in data set [2] (serum, TPHP-L: 10 mg/kg daily oral gavage 35 d, male C57BL/6N mice, read-out: TPHP concentration in serum), 0.32 ± 0.03 ng/mL. For the same compound, in the data set with C57BL/6N mice (TPHP exposure groups), the “Hepatic TG concentrations vs control group (in words)” value is reported as “significantly higher”. Further, the “Hepatic TG” value with C57BL/6N mice (TPHP-H: 50 mg/kg daily oral gavage 35 d) was 731.21 μmol/g prot and 811.79 μmol/g prot and 765.68 μmol/g prot; in the data set with C57BL/6N mice (TPHP-L: 10 mg/kg daily oral gavage 35 d), 784.11 μmol/g prot and 752.79 μmol/g prot and 725.51 μmol/g prot.

Broadly, the IC50 is the midpoint of a concentration-inhibition curve.
